Data as given in patent publication US9914730B2, “Azaquinazoline inhibitors of Atypical protein Kinase C” (Ignyta, Inc., priority 2012, dated 2018).

Target: T1, full-length human PKCι (Homo sapiens, UniProt P41743)
T1 construct: Recombinant, full-length human PKCι expressed in Sf21 insect cells is also commercially available; purchased; host or cells: Sf21 insect cells
T1 sequence (P41743 1-596): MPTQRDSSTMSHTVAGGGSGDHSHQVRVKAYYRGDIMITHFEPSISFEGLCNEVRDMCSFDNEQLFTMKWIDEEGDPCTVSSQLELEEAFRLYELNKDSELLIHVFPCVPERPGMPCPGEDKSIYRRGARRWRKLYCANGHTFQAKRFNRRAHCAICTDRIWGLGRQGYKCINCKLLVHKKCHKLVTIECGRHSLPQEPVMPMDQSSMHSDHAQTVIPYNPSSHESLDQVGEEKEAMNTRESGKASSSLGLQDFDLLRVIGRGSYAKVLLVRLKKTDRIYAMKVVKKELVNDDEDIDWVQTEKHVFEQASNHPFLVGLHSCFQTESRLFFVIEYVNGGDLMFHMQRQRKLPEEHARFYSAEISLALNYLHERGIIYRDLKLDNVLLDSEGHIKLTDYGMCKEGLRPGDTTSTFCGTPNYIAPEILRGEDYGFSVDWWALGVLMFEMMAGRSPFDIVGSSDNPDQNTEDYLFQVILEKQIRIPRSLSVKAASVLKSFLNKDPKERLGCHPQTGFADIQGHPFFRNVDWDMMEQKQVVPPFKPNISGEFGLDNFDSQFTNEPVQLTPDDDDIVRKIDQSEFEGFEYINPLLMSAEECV
Test: PKCι IC50 IMAP assay, full-length PKCι at 150 μM ATP
Format: biochemical
Details: read-out: IC50 in IMAP assay against full length PKCi at 150 μM ATP
Outline: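 IC50 from IMAP FP (ex 485/em 530 nm) after 60 min room-temperature reaction in pH 7.5 tris buffer with 9 mM MgCl2 and 0.9 mM DTT. Enzyme: full-length Sf21-expressed PKCι (~15 pM); ATP 150 μM, five times KM^APP; FAM-labelled peptide 100 nM; DMSO 4%.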

Compound	IC50 [nM]
COc1cncc2nc(-c3ccncc3)nc(N3CCN(C)[C@@H](Cc4ccccc4)C3)c12 [Example 81, (2S)-2-benzyl-4-[5-methoxy-2-(pyridin-4-yl)pyrido[3,4-d]pyrimidin-4-yl]-1-methylpiperazine; formic acid]	100 to 1000
NC(=O)CN[C@H](CNc1nc(-c2ccncc2)nc2cnccc12)Cc1ccccc1 [Example 82, 2-{[(2S)-1-phenyl-3-{[2-(pyridin-4-yl)pyrido[3,4-d]pyrimidin-4-yl]amino}propan-2-yl]amino}acetamide]	1000 to 10000
CS(=O)(=O)Nc1cccc(-c2nccc3c(NC[C@@H](N)Cc4ccccc4)nc(-c4ccncc4)nc23)c1 [Example 88, N-{3-[4-((S)-2-Amino-3-phenyl-propylamino)-2-pyridin-4-yl-pyrido[3,4-d]pyrimidin-8-yl]-phenyl}-methanesulfonamide]	100 to 1000
N[C@H](CNc1nc(-c2ccncc2)nc2c(-c3ccccc3)nccc12)Cc1ccccc1 [Example 90, N-[(2S)-2-amino-3-phenylpropyl]-8-phenyl-2-(pyridin-4-yl)pyrido[3,4-d]-pyrimidin-4-amine]	100 to 1000
N[C@H](CNc1nc(-c2ccncc2)nc2c(-c3ccc(O)cc3)nccc12)Cc1ccccc1 [Example 91, 4-(4-{[(2S)-2-amino-3-phenylpropyl]-amino}-2-(pyridin-4-yl)pyrido[3,4-d]-pyrimidin-8-yl)phenol]	100 to 1000
COc1ccccc1-c1nccc2c(NC[C@@H](N)Cc3ccccc3)nc(-c3ccncc3)nc12 [Example 93, N-[(2S)-2-amino-3-phenylpropyl]-8-(2-methoxy-phenyl)-2-(pyridin-4-yl)-pyrido[3,4-d]-pyrimidin-4-amine]	100 to 1000
COc1ccc(-c2nccc3c(NC[C@@H](N)Cc4ccccc4)nc(-c4ccncc4)nc23)cc1 [Example 95, N-[(2S)-2-amino-3-phenylpropyl]-8-(4-methoxy-phenyl)-2-(pyridin-4-yl)-pyrido[3,4-d]-pyrimidin-4-amine]	100 to 1000
N[C@H](CNc1nc(-c2ccncc2)nc2c(-c3ccccc3Cl)nccc12)Cc1ccccc1 [Example 96, N-[(2S)-2-amino-3-phenylpropyl]-8-(2-chlorophenyl)-2-(pyridin-4-yl)pyrido[3,4-d]pyrimidin-4-amine]	100 to 1000
N[C@H](CNc1nc(-c2ccncc2)nc2c(-c3ccc4occc4c3)nccc12)Cc1ccccc1 [Example 97, N-[(2S)-2-amino-3-phenylpropyl]-8-(1-benzofuran-5-yl)-2-(pyridin-4-yl)-pyrido[3,4-d]-pyrimidin-4-amine]	100 to 1000
N[C@H](CNc1nc(-c2ccncc2)nc2c(-c3ccncc3)nccc12)Cc1ccccc1 [Example 100, N-[(2S)-2-amino-3-phenylpropyl]-2,8-bis(pyridin-4-yl)pyrido[3,4-d]pyrimidin-4-amine]	100 to 1000
N[C@H](CNc1nc(-c2ccncc2)nc2c(-c3ccc(Cl)cc3)nccc12)Cc1ccccc1 [Example 103, N-[(2S)-2-amino-3-phenylpropyl]-8-(4-chloro-phenyl)-2-(pyridin-4-yl)-pyrido[3,4-d]-pyrimidin-4-amine]	100 to 1000
N[C@H](CNc1nc(-c2ccncc2)nc2c(-c3cccc(-c4cccc(Cl)c4)c3)nccc12)Cc1ccccc1 [Example 106, N-[(2S)-2-amino-3-phenylpropyl]-8-[3-(3-chloro-phenyl)-phenyl]-2-(pyridin-4-yl)pyrido[3,4-d]pyrimidin-4-amine]	1000 to 10000
N[C@H](CNc1nc(-c2ccncc2)nc2c(-c3ccc(-c4ccc(Cl)cc4)cc3)nccc12)Cc1ccccc1 [Example 107, N-[(2S)-2-amino-3-phenylpropyl]-8-[4-(4-chloro-phenyl)-phenyl]-2-(pyridin-4-yl)pyrido[3,4-d]pyrimidin-4-amine]	1000 to 10000
N[C@H](CNc1nc(-c2ccncc2)nc2c(-c3cncnc3)nccc12)Cc1ccccc1 [Example 108, N-[(2S)-2-amino-3-phenylpropyl]-2-(pyridin-4-yl)-8-(pyrimidin-5-yl)pyrido[3,4-d]pyrimidin-4-amine]	100 to 1000
Nc1cccc(-c2nccc3c(NC[C@@H](N)Cc4ccccc4)nc(-c4ccncc4)nc23)c1 [Example 109, N-[(2S)-2-amino-3-phenylpropyl]-8-(3-aminophenyl)-2-(pyridin-4-yl)pyrido[3,4-d]pyrimidin-4-amine]	100 to 1000

Second part, the compound after the results:

IC50 [nM]	Compound
100 to 1000	CN[C@H](CNc1nc(-c2ccncc2)nc2cnccc12)Cc1ccccc1 [Example 80, methyl[(2S)-1-phenyl-3-{[2-(pyridin-4-yl)pyrido[3,4-d]pyrimidin-4-yl]amino}propan-2-yl]amine]
10000 to 40000	CS(=O)(=O)N[C@H](CNc1nc(-c2ccncc2)nc2cnccc12)Cc1ccccc1 [Example 83, N-(1-phenyl-3-{[2-(pyridin-4-yl)pyrido[3,4-d]pyrimidin-4-yl]amino}propan-2-yl)methanesulfonamide]
10000 to 40000	NC(=O)N[C@H](CNc1nc(-c2ccncc2)nc2cnccc12)Cc1ccccc1 [Example 84, (1-phenyl-3-{[2-(pyridin-4-yl)pyrido[3,4-d]pyrimidin-4-yl]amino}propan-2-yl)urea]
10000 to 40000	CCNC(=O)N[C@H](CNc1nc(-c2ccncc2)nc2cnccc12)Cc1ccccc1 [Example 85, 3-ethyl-1-(1-phenyl-3-{[2-(pyridin-4-yl)pyrido[3,4-d]pyrimidin-4-yl]amino}propan-2-yl)urea]
1000 to 10000	COc1cncc2nc(-c3ccncc3)nc(N3CCN4C(=O)OC[C@H]4C3)c12 [Example 86, (3aR)-5-[5-methoxy-2-(pyridin-4-yl)pyrido[3,4-d]pyrimidin-4-yl]-hexahydro-1H-[1,3]oxazolo[3,4-a]piperazin-1-one]
10000 to 40000	COc1cncc2nc(-c3ccncc3)nc(N3CCN(CC#N)CC3)c12 [Example 87, 2-{4-[5-methoxy-2-(pyridin-4-yl)pyrido[3,4-d]pyrimidin-4-yl]piperazin-1-yl}acetonitrile]
< 100	N[C@H](CNc1nc(-c2ccncc2)nc2c(-c3ccn[nH]3)nccc12)Cc1ccccc1 [Example 89, N-[(2S)-2-amino-3-phenylpropyl]-8-(1H-pyrazol-5-yl)-2-(pyridin-4-yl)pyrido[3,4-d]-pyrimidin-4-amine]
1000 to 10000	N[C@H](CNc1nc(-c2ccncc2)nc2c(-c3cccc(O)c3)nccc12)Cc1ccccc1 [Example 92, 3-(4-{[(2S)-2-amino-3-phenylpropyl]-amino}-2-(pyridin-4-yl)-pyrido[3,4-d]-pyrimidin-8-yl)phenol]
100 to 1000	COc1cccc(-c2nccc3c(NC[C@@H](N)Cc4ccccc4)nc(-c4ccncc4)nc23)c1 [Example 94, N-[(2S)-2-amino-3-phenylpropyl]-8-(3-methoxy-phenyl)-2-(pyridin-4-yl)-pyrido[3,4-d]-pyrimidin-4-amine]
1000 to 10000	Cn1cc(-c2nccc3c(NC[C@@H](N)Cc4ccccc4)nc(-c4ccncc4)nc23)cn1 [Example 98, N-[(2S)-2-amino-3-phenylpropyl]-8-(1-methyl-1H-pyrazol-4-yl)-2-(pyridin-4-yl)-pyrido[3,4-d]-pyrimidin-4-amine]
100 to 1000	N[C@H](CNc1nc(-c2ccncc2)nc2c(-c3cccnc3)nccc12)Cc1ccccc1 [Example 99, N-[(2S)-2-amino-3-phenylpropyl]-8-(pyridin-3-yl)-2-(pyridin-4-yl)pyrido[3,4-d]pyrimidin-4-amine]
1000 to 10000	CC(C)Cn1cc(-c2nccc3c(NC[C@@H](N)Cc4ccccc4)nc(-c4ccncc4)nc23)cn1 [Example 101, N-[(2S)-2-amino-3-phenylpropyl]-8-[1-(2-methyl-propyl)-1H-pyrazol-4-yl]-2-(pyridin-4-yl)-pyrido[3,4-d]-pyrimidin-4-amine]
100 to 1000	N[C@H](CNc1nc(-c2ccncc2)nc2c(-c3cccc(Cl)c3)nccc12)Cc1ccccc1 [Example 102, N-[(2S)-2-amino-3-phenylpropyl]-8-(3-chloro-phenyl)-2-(pyridin-4-yl)-pyrido[3,4-d]-pyrimidin-4-amine]
1000 to 10000	Cn1nccc1-c1nccc2c(NC[C@@H](N)Cc3ccccc3)nc(-c3ccncc3)nc12 [Example 104, N-[(2S)-2-amino-3-phenylpropyl]-8-(1-methyl-1H-pyrazol-5-yl)-2-(pyridin-4-yl)-pyrido[3,4-d]-pyrimidin-4-amine]
< 100	N[C@H](CNc1nc(-c2ccncc2)nc2c(-c3ccccc3O)nccc12)Cc1ccccc1 [Example 105, 2-(4-{[(2S)-2-amino-3-phenylpropyl]-amino}-2-(pyridin-4-yl)-pyrido[3,4-d]-pyrimidin-8-yl)phenol]
100 to 1000	N[C@H](CNc1nc(-c2ccncc2)nc2c(-c3cccc4ccoc34)nccc12)Cc1ccccc1 [Example 110, N-[(2S)-2-amino-3-phenylpropyl]-8-(1-benzofuran-7-yl)-2-(pyridin-4-yl)pyrido[3,4-d]pyrimidin-4-amine]
